Legend:
HL60 = assay: CCK-8 assay, HL60; type: cell-based; conditions: Homo sapiens, HL-60; leukaemia, APL; CCK-8, 72 h
Description: (§1) Cells were seeded in 96-well plates at a density of 8 × 10^3 per well and exposed to different concentrations of compounds for 72 h. Subsequently, 10 µL CCK8 solution was added to each well and co-incubated for another 3–4 h at 37 °C. The absorbance was determined at 450 nm. Data was calculated with GraphPad Prism5 software.[32]

CCRF-CEM = assay: CCK-8 assay, CCRF-CEM; type: cell-based; conditions: Homo sapiens, leukaemia, ALL, CCK-8, 72 h
Description: as §1

THP-1 = assay: CCK-8 assay, THP-1; type: cell-based; conditions: Homo sapiens, leukaemia, AML, CCK-8, 72 h
Description: as §1

K562 = assay: CCK-8 assay, K562; type: cell-based; conditions: Homo sapiens, leukaemia, CML, CCK-8, 72 h
Description: as §1

HuT 78 = assay: CCK-8 assay, HuT 78; type: cell-based; conditions: Homo sapiens, HuT78; leukaemia, ALL; CCK-8, 72 h
Description: as §1

MV4-11 = assay: CCK-8 assay, MV4-11; type: cell-based; conditions: Homo sapiens, leukaemia, AML, CCK-8, 72 h
Description: as §1

Jurkat = assay: CCK-8 assay, Jurkat; type: cell-based; conditions: Homo sapiens, leukaemia, ALL, CCK-8, 72 h
Description: as §1

[1] = molecular target: T1, Tubulin isolated from porcine brain tissue (Sus scrofa, UniProt P02550+P02554); assay: Tubulin polymerisation assay; type: biochemical; conditions: triplicate, mean ± SD; read-out: Tubulin (tubulin inhibitory polymerisation IC50)
T1 construct: purchased Cytoskeleton (Denver, CO), via Beyotime, China; host or cells: porcine brain tissue
Description: Tubulin polymerisation was determined with the tubulin polymerisation assay kit (Cytoskeleton, Denver, CO which was purchased from Cytoskeleton, Beyotime, China. Tubulin isolated from porcine brain tissue was used in this commercial kit.) It is based on the principal that light is scattered by microtubules to an extent that is proportional to the concentration of the microtubule polymer. Compounds that interact with tubulin will alter the polymerisation of tubulin, and this can be detected using a spectrophotometer. Tubulin polymerisation dynamics was monitored through measuring the change of absorbance at 340 nm every 2 min for 30 min at 37 °C on a spectrophotometer.

[2] = test system: transgenic zebrafish (FLK-1:EGFP); assay: Zebrafish angiogenesis assay (ISVs); type: in vivo; conditions: Danio rerio, transgenic zebrafish; triplicate, mean ± SD; read-out: Zebrafish (antiangiogenic activity IC50)
Description: The transgenic flk: enhanced GFP zebrafish embryos were generated by pair-wise mating, collected and sorted into the 6-well plate (n = 30 per well) with 1 ml of aquaculture water (0.2 g/L of Instant Ocean Salt in distilled water) and raised at 28 °C. Then the embryos staged at 12 h post fertilisation (hpf) were treated with the indicated concentrations of compounds which were added into embryo water. About 30 embryos were screened for each concentration gradient. At 30hpf, the treated embryos were anaesthetised with 0.02% tricaine in embryo water and photographed. The numbers of ISVs were recorded under confocal microscopy. Results were obtained from three independent determinations and presented as mean ± SD.[38]

T1 sequence (P02554 whole entry): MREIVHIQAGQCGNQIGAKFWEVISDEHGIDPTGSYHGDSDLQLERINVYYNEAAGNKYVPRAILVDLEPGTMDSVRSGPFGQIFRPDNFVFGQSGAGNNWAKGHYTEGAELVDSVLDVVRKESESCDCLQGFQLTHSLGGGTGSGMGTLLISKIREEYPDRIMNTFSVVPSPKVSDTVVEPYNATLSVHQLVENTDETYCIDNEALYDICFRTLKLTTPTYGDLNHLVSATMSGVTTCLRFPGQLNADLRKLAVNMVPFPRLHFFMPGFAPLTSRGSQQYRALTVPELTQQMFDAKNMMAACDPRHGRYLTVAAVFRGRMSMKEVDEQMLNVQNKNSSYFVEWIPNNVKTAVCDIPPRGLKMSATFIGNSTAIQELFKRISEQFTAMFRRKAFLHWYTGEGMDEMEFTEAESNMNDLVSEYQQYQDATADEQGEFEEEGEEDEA
T1 sequence (P02550 whole entry): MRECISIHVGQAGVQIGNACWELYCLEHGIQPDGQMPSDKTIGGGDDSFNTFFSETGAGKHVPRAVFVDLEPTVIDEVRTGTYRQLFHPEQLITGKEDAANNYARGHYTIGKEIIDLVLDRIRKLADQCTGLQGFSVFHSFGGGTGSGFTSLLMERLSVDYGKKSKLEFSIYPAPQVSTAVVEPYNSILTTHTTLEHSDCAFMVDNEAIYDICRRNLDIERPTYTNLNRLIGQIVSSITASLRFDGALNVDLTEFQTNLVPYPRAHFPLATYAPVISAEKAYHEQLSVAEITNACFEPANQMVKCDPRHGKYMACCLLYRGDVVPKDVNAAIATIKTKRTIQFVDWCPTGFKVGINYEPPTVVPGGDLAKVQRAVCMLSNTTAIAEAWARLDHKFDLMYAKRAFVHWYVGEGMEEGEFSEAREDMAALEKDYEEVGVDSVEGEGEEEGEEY

Structure (SMILES)	IC50 [1] [µM]	IC50 [2] [µM]	melting point [°C]	other results
COc1ccc(/C=C\c2cc(OC)c(OC)c(OC)c2)cc1O [CA-4, Combretastatin A-4, reference compound]	–	–	–	IC50 (HL60): 0.26 ± 0.05 µM; IC50 (CCRF-CEM): 0.71 ± 0.11 µM; IC50 (THP-1): 0.08 ± 0.01 µM; IC50 (K562): 0.27 ± 0.01 µM; IC50 (HuT 78): 0.24 ± 0.04 µM; IC50 (MV4-11): 0.12 ± 0.03 µM; IC50 (Jurkat): 0.19 ± 0.02 µM
COc1cc(C(=O)C=Cc2c[nH]c3ccccc23)cc(OC)c1OC [Compound 6]	8.5 ± 1.2	27.8 ± 0.9	–	–
COc1cc(C(=O)C=Cc2cc3ccccc3o2)cc(OC)c1OC [Compound 7]	18.6 ± 0.5	29.5 ± 1.5	–	–
COc1cc(C(=O)C=Cc2ccc3sc4ccccc4c3c2)cc(OC)c1OC [Compound 8]	45.7 ± 2.3	68.6 ± 2.1	–	–
COc1cc(C(=O)C=Cc2nc3ccccc3[nH]2)cc(OC)c1OC [Compound 9]	20.8 ± 1.4	> 100	–	–
COc1ccc(C(=O)/C=C/c2cn(S(=O)(=O)c3ccccc3)c3ccccc23)cc1 [Compound 26e, (E)-1–(4-Methoxyphenyl)-3–(1-(phenylsulfonyl)-1H-indol-3-yl)prop-2-en-1-one]	58.4 ± 1.7	35.6 ± 3.2	165 to 168	–
CCCn1cc(/C=C/C(=O)c2cccc(OC)c2)c2ccccc21 [Compound 27c, (E)-1–(3-Methoxyphenyl)-3–(1-propyl-1H-indol-3-yl)prop-2-en-1-one]	52.1 ± 2.9	18.6 ± 3.2	161 to 162	–
O=C(/C=C/c1cn(S(=O)(=O)c2ccccc2)c2ccccc12)c1ccc(C(F)(F)F)cc1 [Compound 28e, (E)-3–(1-(phenylsulfonyl)-1H-indol-3-yl)-1–(4-(trifluoromethyl)phenyl)prop-2-en-1-one]	10.4 ± 0.7	5.8 ± 2.1	167 to 170	–
COc1cc(C(=O)/C=C/c2cn(C)c3ccccc23)cc(OC)c1OC [Compound 29a, (E)-3–(1-Methyl-1H-indol-3-yl)-1–(3,4,5-trimethoxyphenyl)prop-2-en-1-one]	49.9 ± 8.5	15.7 ± 3.2	160 to 162	–
COc1cc(C(=O)/C=C/c2cn(Cc3ccccc3)c3ccccc23)cc(OC)c1OC [Compound 29d, (E)-3–(1-Benzyl-1H-indol-3-yl)-1–(3,4,5-trimethoxyphenyl)prop-2-en-1-one]	24.8 ± 2.1	6.7 ± 0.5	160 to 163	–
COc1cc(C(=O)/C=C/c2ccnc3ccccc23)cc(OC)c1OC [DYT-1, (E)-3-(quinolin-4-yl)-1–(3,4,5-trimethoxyphenyl)prop-2-en-1-one]	25.6	38.4	–	IC50 (K562): 6.2 µM; IC50 (Jurkat): 7.9 µM
